The source of these data is patent US5288758A, “New urea derivatives, their preparation and their application in therapy” (priority 1991, dated 1994).

acetylcholinesterase, sequence (P22303 32-614): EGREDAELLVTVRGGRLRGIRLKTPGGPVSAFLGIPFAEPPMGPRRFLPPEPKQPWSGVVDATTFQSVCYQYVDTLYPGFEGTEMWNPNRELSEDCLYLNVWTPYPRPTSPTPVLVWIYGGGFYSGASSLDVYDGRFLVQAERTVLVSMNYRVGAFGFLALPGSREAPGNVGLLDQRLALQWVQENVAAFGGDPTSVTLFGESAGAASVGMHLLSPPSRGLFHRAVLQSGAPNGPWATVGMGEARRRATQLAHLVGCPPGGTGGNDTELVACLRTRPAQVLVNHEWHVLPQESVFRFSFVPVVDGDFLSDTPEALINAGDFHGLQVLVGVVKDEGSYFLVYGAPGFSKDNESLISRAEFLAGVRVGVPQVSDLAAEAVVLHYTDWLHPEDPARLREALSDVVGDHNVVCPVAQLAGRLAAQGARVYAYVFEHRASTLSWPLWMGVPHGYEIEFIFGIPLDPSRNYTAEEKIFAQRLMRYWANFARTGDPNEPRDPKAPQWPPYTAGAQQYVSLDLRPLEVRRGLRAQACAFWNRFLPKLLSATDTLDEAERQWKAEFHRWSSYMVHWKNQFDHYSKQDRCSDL

The experiment has as its target acetylcholinesterase (Homo sapiens, UniProt P22303). Put plainly: biochemical. As to conditions: method of Ellman et al., Biochem. Pharmacol. 7, 88-95 (1961); read-out: Inhibition of acetylcholinesterase activity, IC50.
As a reminder, the IC50 is the midpoint of a concentration-inhibition curve. For `CN(CCCCCNC(=S)NC(=O)c1ccccc1)CC1CCCCC1` [Compound 5, 1-Benzoyl-3-[5-(N-cyclohexylmethyl-N-methylamino)pentyl]thiourea], the half-maximal inhibitory concentration (IC50) was determined as 50 nM. In the case of `COc1ccc(C(=O)NC(=S)NCCOCCN(C)Cc2ccccc2)cc1` [Compound 11], the IC50 was 26 nM.

`CN(CCOCCNC(=S)NC(=O)c1ccc(Cl)cc1)Cc1ccccc1` [Compound 12]: the IC50 came to 30 nM. Turning to `CN(CCOCCNC(=S)NC(=O)c1cccc([N+](=O)[O-])c1)Cc1ccccc1` [Compound 13], the concentration for half-maximal inhibition (IC50) is 15 nM.

With `CN(CCOCCNC(=S)NC(=O)c1ccc(Cl)c(Cl)c1)Cc1ccccc1` [Compound 14], the IC50 was found to be 55 nM.

`CN(CCOCCNC(=S)NC(=O)c1ccc2ccccc2c1)Cc1ccccc1` [Compound 16]: the IC50 turned out to be 100 nM.
